Experiments:
[1] = test system: abdominal skin of C.R rats; test: Rat skin test: intradermal injection of peptide, then intradermal compound 48/80 or vehicle, wheal area; assay type: in vivo; settings: Fenistil Gel 100 mg t.a., Cromoglycate 20 mg/ml i.d., Peptide 2 10 mg/ml i.d.
Protocol: The hair of the abdominal area of C.R rats was carefully removed with an electric clipper and a depilatory cream. In each animal the abdominal area was divided to six equal zones that were marked by pen. Each zone was either subjected to peptide treatment or served as a control. In the first set of experiments, the peptide was topically applied as follows: 36 μl of peptide solution at the indicated concentration (dissolved in 72% DMSO in saline) was applied on desired abdominal area. In the second set of experiments, the peptide was injected intradermally as follows: 20 μl of peptide solution at different concentrations (dissolved in 10% DMSO in saline) was injected intradermally to an indicated abdominal area using a 27-gauge sterile needle.
Skin tests were performed 0.5, 1 or 2 hours following application of the peptide. Skin tests were performed by injecting intradermally 20 μl of the allergen (0.1 mg/ml compound 48/80 dissolved in saline) or saline alone, into the center of each marked area on the abdominal skin using a 27-gauge sterile needle. The allergic response was monitored by outlining with a marker the wheals which developed in response to allergen or saline treatment.
To quantitate the skin test results, the marker signs were transferred onto paper with scotch tape. The areas of the wheals were outlined and calculated by a computerized planimeter (Hewlett-Packard), as previously described (Sussman et al., 1982).
Tables 10-16 presents the mean areas of the wheals, which developed in response to intradermal injection of each of the tested peptides, followed by either compound 48/80 or DDW injection applied after 0.5 or 1 hour. Two doses were tested for each peptide-20 and 200 μg (injection of 20 μl from a stock solution of 1 mg/ml or 10 mg/m respectively).
Skin tests on rats using compound 48/80 as the allergen assessed the ability of the peptides of the present invention to block allergic cutaneous reactions. The abdominal skin of the rats was subjected to peptide (indicated concentrations are listed in Tables 17A-17B below) or vehicle treatment (intradermal injection); the allergic response was induced by intradermal injection of compound 48/80 at various times; and the allergic response was quantified by calculating the area of the resultant allergic wheals.

mice = test: IgE-independent mouse conjunctivitis induced by compound 48/80, clinical score; assay type: in vivo; design: scale not given here; settings: for Average Score, Chemosis: drug 24, 21, 18 hrs and 30 min before compound 48/80, Cromoglycate 2%, Dexamethazone 0.1%, Peptide 2 2%, no treatment 2.0; for Average Score, Erythema / Average Score, Tearing / Average Score, Lid edema / Average Score, Total score: drug before compound 48/80; for Average Score, Erythema: no treatment 0.8; for Average Score, Tearing: no treatment 2.3; for Average Score, Lid edema: no treatment 2.5; for Average Score, Total score: no treatment 7.6
Protocol: A murine model was chosen as an in vivo model of IgE-independent human conjunctivitis, induced by a basic secretagogue.
Six groups of mice were topically treated as described in Table 19. The first application was installed 4 times (24 hours, 21 hours, 18 hours and 30 minutes) prior to the second application.
Clinical evaluation of allergic conjunctivitis was conducted in a blind fashion by determining the extent and intensity of lid edema, chemosis, erythema and tearing.

Compound: O=C(O)c1cc(=O)c2c(OCC(O)COc3cccc4oc(C(=O)O)cc(=O)c34)cccc2o1 [Cromoglycate]
- Mean wheal size, compound 48/80-induced cutaneous reaction ([1]; 0.5 hour incubation, Ceterizine 0.01 mg/ml i.d., no treatment 115.5 ± 30.4): 76.2 ± 17.5 mm^2
- Mean wheal size, compound 48/80-induced cutaneous reaction ([1]; 1 hour incubation, no treatment 123.3 ± 33.9): 91.5 ± 12.6 mm^2
- Average Score, Chemosis (mice): 0.5
- Average Score, Erythema (mice): 0.5
- Average Score, Tearing (mice): 1.9
- Average Score, Lid edema (mice): 1.1
- Average Score, Total score (mice): 4.0

Compound: C[C@@H]1C[C@H]2[C@@H]3CCC4=CC(=O)C=C[C@]4(C)[C@@]3(F)[C@@H](O)C[C@]2(C)[C@@]1(O)C(=O)CO [Dexamethazone]
- Average Score, Chemosis (mice): 0
- Average Score, Erythema (mice): 0.6
- Average Score, Tearing (mice): 1.0
- Average Score, Lid edema (mice): 0
- Average Score, Total score (mice): 1.6

Reference: US20070009544A1, “Anti-allergic complex molecules” (priority 1999, published 2007)
